# Data from US7223759B2, “Antibacterial 3,5-diaminopiperidine-substituted aromatic and heteroaromatic compounds” (Anadys Pharmaceuticals, Inc., priority 2003, dated 2007).
# System: Escherichia coli (ATCC25922) or Staphylococcus aureus (ATCC25923)
# Test: Antibacterial MIC, microdilution method in Mueller-Hinton medium
# Type: cell-based
# Conditions: Escherichia coli, 18 h, MIC in E. coli or S. aureus; two-fold serial dilutions 64 to 0.5 μg/ml in duplicate; 18 hours of incubation at 35° C.; read-out: Potency (MIC)
# Method in brief: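 Read after 18 h incubation at 35° C, MIC is the lowest compound level that blocked growth. Compounds were tested in duplicate over 64–0.5 μg/ml two-fold dilutions using Mueller-Hinton microdilution per NCCLS standard.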
row,MIC [µg/mL],Compound
1,> 64,"Cl.NC1C[C@@H](N)CN(c2nc(Nc3ccc(O)cc3[N+](=O)[O-])nc(N3C[C@H](N)C[C@H](N)C3)n2)C1 (stereo in doubt) [N-(4-hydroxy-2-nitro-phenyl)-4,6-Bis-((3R,5S)-3,5-diamino-piperidin-1-yl)-[1,3,5]triazine-2-amine]"
2,> 64,"CN1CCCC1CCNc1nc(N2C[C@H](N)C[C@H](N)C2)nc(N2C[C@H](N)C[C@H](N)C2)n1.Cl (stereo partly drawn) [N-[2-(1-medthyl-pyrrolidin-2-yl)-ethyl]-4,6-Bis-((3R,5S)-3,5-diamino-piperidin-1-yl)-[1,3,5]triazine-2-amine]"
3,> 64,"N[C@@H]1C[C@H](N)CN(c2nc(Nc3ccc(S(=O)(=O)Nc4ccc5cn[nH]c5c4)cc3)nc(NC3CCCNC3)n2)C1 (stereo partly drawn) [4-[4-((3S,5R)-3,5-Diamino-piperidin-1-yl)-6-(piperidin-3-ylamino)-[1,3,5]triazin-2-ylamino]-N-(1H-indazol-6-yl)-benzenesulfonamide]"
4,< 64,"CCC(=O)Nc1ccc(Nc2nc(N3C[C@H](N)C[C@H](N)C3)nc(N3C[C@H](N)C[C@H](N)C3)n2)cc1O [N-(3-hydroxy-4-propionylamino-phenyl)-4,6-Bis-((3R,5S)-3,5-diamino-piperidin-1-yl)-[1,3,5]triazine-2-amine]"
5,> 64,"COc1ccc(OC)c(Nc2nc(N3C[C@H](N)C[C@H](N)C3)nc(N3C[C@H](N)C[C@H](N)C3)n2)c1 [N-(2,5-dimethoxy-phenyl)-4,6-Bis-((3R,5S)-3,5-diamino-piperidin-1-yl)-[1,3,5]triazine-2-amine]"
6,< 64,"Cl.O=C(Nc1ccc(Nc2nc(N3CCCCC3)nc(N3CCCC3)n2)cc1O)c1ccc(Cl)cc1 [4-Chloro-N-{4-[4-((3R,5S)-3,5-diamino-piperidin-1-yl)-6-((3R,4S)-3,4-diamino-pyrrolidsin-1-yl)-[1,3,5]triazin-2-ylamino]-2-hydroxy-phenyl}-benzamide]"
7,> 64,"Cl.N[C@@H]1C[C@H](N)CN(c2nc(NCc3ccco3)nc(N3C[C@H](N)C[C@H](N)C3)n2)C1 [N-furan-2-ylmethyl-4,6-Bis-((3R,5S)-3,5-diamino-piperidin-1-yl)-[1,3,5]triazine-2-amine]"
8,< 64,"Cc1cc(NC(=O)c2cc3cccc(O)c3cc2O)ccc1Nc1nc(N2C[C@H](N)C[C@H](N)C2)nc(N2C[C@H](N)C[C@H](N)C2)n1 [N-{4-[(3,5-dihydroxy-naphthalene-2-carbonyl)-amino]-2-methyl-phenyl}-4,6-Bis-((3R,5S)-3,5-diamino-piperidin-1-yl)-[1,3,5]triazine-2-amine]"
9,> 64,"O=C(Nc1ccccc1)c1ccccc1Nc1nc(N2CCCCC2)nc(N2CCCCC2)n1 [N-(2-phenylcarbamoyl-phenyl)-44,6-Bis-((3R,5S)-3,5-diamino-piperidin-1-yl)-[1,3,5]triazine-2-amine]"
10,> 64,"CC(=O)c1ccc(Nc2nc(N3C[C@H](N)C[C@H](N)C3)nc(N3C[C@H](O)C[C@@H](O)C3)n2)cc1 [1-{4-[4-((3R,5S)-3,5-Diamino-piperidin-1-yl)-6-((3R,5R)-3,5-dihydroxy-piperidin-1-yl)-[1,3,5]triazin-2-ylamino]-phenyl}-ethanone]"
11,> 64,"N[C@@H]1C[C@H](N)CN(c2nc(Nc3ccc(O)cc3)nc(N3C[C@H](N)C[C@H](N)C3)n2)C1 [N-(4-hydroxy-phenyl)-4,6-Bis-((3R,5S)-3,5-diamino-piperidin-1-yl)-[1,3,5]triazine-2-amine]"
12,< 16,"Cc1ccc(S(=O)(=O)NC(Cc2ccccc2)C(=O)Nc2ccc(Nc3nc(N4CCCCC4)nc(N4CCCCC4)n3)cc2O)cc1.Cl [N-{3-hydroxy-4-[3-phenyl-2-(toluene-4-sulfonylamino)-propionylamino]-phjenyl}-4,6-Bis-((3R,5S)-3,5-diamino-piperidin-1-yl)-[1,3,5]triazine-2-amine]"
13,< 16,"N[C@@H]1C[C@H](N)CN(c2nc(Nc3ccc(NC(=O)c4ccc(N5Cc6ccccc6C5)cc4O)cc3)nc(N3C[C@H](N)C[C@H](N)C3)n2)C1 [N-{4-[4-(1,3-dihydro-isoindol-2-yl)-2-hydroxy-benzoylamino]-phenyl}-4,6-Bis-((3R,5S)-3,5-diamino-piperidin-1-yl)-[1,3,5]triazine-2-amine]"
14,< 16,"N[C@@H]1C[C@H](N)CN(c2nc(Nc3ccc(C(=O)CC(=O)Nc4ccccc4Cl)cc3)nc(N3C[C@H](N)C[C@H](N)C3)n2)C1 [N-{4-[2-(2-chloro-phenylcarbamoyl)-acetyl]-phenyl}-4,6-Bis-((3R,5S)-3,5-diamino-piperidin-1-yl)-[1,3,5]triazine-2-amine]"

# Same assay, conditions: Escherichia coli, 18 h, read-out: Potency (MIC)
row,Compound,MIC [µg/mL]
1,"N[C@@H]1C[C@H](N)CN(c2nc(Nc3ccc(C(=O)CC(=O)Nc4ccccc4Cl)cc3)nc(N3C[C@@H](N)C[C@H]3CO)n2)C1 [3-{4-[4-((2S,4S)-4-Amino-2-hydroxymethyl-pyrrolidin-1-yl)-6-((3R,5S)-3,5-diamino-piperidin-1-yl)-[1,3,5]triazin-2-ylamino]-phenyl}-N-(2-chloro-phenyl)-3-oxo-propionamide]",< 64
2,"N[C@@H]1C[C@H](N)CN(c2nc(Nc3ccc(C(=O)Nc4cccc(SC(F)(F)F)c4)c(O)c3)nc(N3C[C@H](N)C[C@H](N)C3)n2)C1 [N-[3-hydroxy-4-(3-trifluoromethylsulfanyl-phenylcarbamoyl)-phenyl]-4,6-Bis-((3R,5S)-3,5-diamino-piperidin-1-yl)-[1,3,5]triazine-2-amine]",< 16
3,"N[C@@H]1C[C@H](N)CN(c2nc(Nc3ccc(C(=O)Nc4ccc5c(c4)OCO5)c(O)c3)nc(N3C[C@H](N)C[C@H](N)C3)n2)C1 [N-[4-(benzo[1,3]dioxol-5-ylcarbamoyl)-3-hydroxy-phenyl]-4,6-Bis-((3R,5S)-3,5-diamino-piperidin-1-yl)-[1,3,5]triazine-2-amine]",< 16
4,"N[C@@H]1C[C@H](N)CN(c2nc(N3C[C@H](N)C[C@H](N)C3)nc(-n3ccc4cc(Br)ccc43)n2)C1 [5-Bromo-1-(4,6-Bis-((3R,5S)-3,5-diamino-piperidin-1-yl)-[1,3,5]triazain-2-yl)-1H-indole]",< 64
5,"Cc1cc(O)c(C)c(O)c1C(=O)Nc1ccc(Nc2nc(N3C[C@H](N)C[C@H](N)C3)nc(N3C[C@H](N)C[C@H](N)C3)n2)cc1 [N-[4-(2,4-dihydroxy-3,6-dimethyl-benzoylamino)-phenyl]-4,6-Bis-((3R,5S)-3,5-diamino-piperidin-1-yl)-[1,3,5]triazine-2-amine]",< 16
6,"N[C@@H]1C[C@H](N)CN(c2nc(Nc3ccc(NC(=O)c4c(O)ccc5ccccc45)cc3)nc(N3C[C@H](N)C[C@H](N)C3)n2)C1 [N-{4-[(2-hydroxy-naphthalene-1-carbonyl)-amino]-phenyl}-4,6-Bis-((3R,5S)-3,5-diamino-piperidin-1-yl)-[1,3,5]triazine-2-amine]",< 16
7,"N[C@@H]1C[C@H](N)CN(c2nc(Nc3ccc(C(=O)CC(=O)Nc4ccccc4F)cc3)nc(N3C[C@H](N)C[C@H](N)C3)n2)C1 [N-{4-[2-(2-fluoro-phenylcarbamoyl)-acetyl]-phenyl}-4,6-Bis-((3R,5S)-3,5-diamino-piperidin-1-yl)-[1,3,5]triazine-2-amine]",< 64
8,"N[C@@H]1C[C@H](N)CN(c2nc(Nc3ccc(NC(=O)c4ccc(C(F)(F)F)nc4O)c(O)c3)nc(N3C[C@H](N)C[C@H](N)C3)n2)C1 [N-{3-hydroxy-4-[(2-hydroxy-6-trifluoromethyl-pyridine-3-carbonyl)-amino]-phenyl}-4,6-Bis-((3R,5S)-3,5-diamino-piperidin-1-yl)-[1,3,5]triazine-2-amine]",< 64
9,"COc1nc(Nc2ccc3c(c2)C(=O)c2ccccc2-3)nc(N2C[C@H](N)C[C@H](N)C2)n1 [2-[4-((3R,5S)-3,5-Diamino-piperidin-1-yl)-6-methoxy-[1,3,5]triazin-2-ylamino]-fluoren-9-one]",> 64
10,"COc1ccc(NC(=O)c2ccc(Nc3nc(N4C[C@H](N)C[C@H](N)C4)nc(N4C[C@H](N)C[C@H](N)C4)n3)cc2O)cc1 [N-[3-hydroxy-4-(4-methoxy-phenylcarbamoyl)-phenyl]-4,6-Bis-((3R,5S)-3,5-diamino-piperidin-1-yl)-[1,3,5]triazine-2-amine]",< 64
11,"N[C@@H]1C[C@H](N)CN(c2nc(Nc3ccc4c(c3)Cc3ccccc3-4)nc(N3C[C@H](N)C[C@H](N)C3)n2)C1 [N-(9H-fluoren-2-yl)-4,6-Bis-((3R,5S)-3,5-diamino-piperidin-1-yl)-[1,3,5]triazine-2-amine]",< 16
12,"N[C@@H]1C[C@H](N)CN(c2nc(Nc3ccc(NC(=O)c4ccc(Cl)cc4O)c(C(=O)Nc4ccccc4)c3)nc(N3C[C@H](N)C[C@H](N)C3)n2)C1 [N-[4-(4-chloro-2-hydroxy-benzoylamino)-3-phenylcarbamoyl-phenyl]-4,6-Bis-((3R,5S)-3,5-diamino-piperidin-1-yl)-[1,3,5]triazine-2-amine]",< 16
13,"N[C@@H]1C[C@H](N)CN(c2nc(NCc3ccc4c(c3)OCO4)nc(N3C[C@H](N)C[C@H](N)C3)n2)C1 [N-benzo[1,3]dioxol-5-ylmethyl-4,6-Bis-((3R,5S)-3,5-diamino-piperidin-1-yl)-[1,3,5]triazine-2-amine]",> 64
14,"N[C@@H]1C[C@H](N)CN(c2nc(Nc3cccc(NC(=O)c4cccc([N+](=O)[O-])c4O)c3)nc(N3C[C@H](N)C[C@H](N)C3)n2)C1 [N-[3-(2-hydroxy-3-nitro-benzoylamino)-phenyl]-4,6-Bis-((3R,5S)-3,5-diamino-piperidin-1-yl)-[1,3,5]triazine-2-amine]",< 16
15,"COc1ccc(Nc2nc(N3C[C@H](N)C[C@H](N)C3)nc(N3C[C@H](N)C[C@H](N)C3)n2)c(NC(=O)c2cccc([N+](=O)[O-])c2O)c1 [N-[2-(2-hydroxy-3-nitro-benzoylamino)-4-methoxy-phenyl]-4,6-Bis-((3R,5S)-3,5-diamino-piperidin-1-yl)-[1,3,5]triazine-2-amine]",> 64
